This is an account of results in patent US10618901B2 (GlaxoSmithKline Intellectual Property Development Limited, priority 2014, dated 2020).

Bounds are passed on as bounds.

The experiment deals with T1, LRRK2 Ser935 phosphorylation in SH-SY5Y cells over-expressing recombinant full length LRRK2 (Homo sapiens, UniProt Q5S007).
T1 construct: A BacMam virus expressing full length recombinant LRRK2 was purchased from Invitrogen; host or cells: SH-SY5Y (BacMam transduction)
T1 sequence (Q5S007 whole entry): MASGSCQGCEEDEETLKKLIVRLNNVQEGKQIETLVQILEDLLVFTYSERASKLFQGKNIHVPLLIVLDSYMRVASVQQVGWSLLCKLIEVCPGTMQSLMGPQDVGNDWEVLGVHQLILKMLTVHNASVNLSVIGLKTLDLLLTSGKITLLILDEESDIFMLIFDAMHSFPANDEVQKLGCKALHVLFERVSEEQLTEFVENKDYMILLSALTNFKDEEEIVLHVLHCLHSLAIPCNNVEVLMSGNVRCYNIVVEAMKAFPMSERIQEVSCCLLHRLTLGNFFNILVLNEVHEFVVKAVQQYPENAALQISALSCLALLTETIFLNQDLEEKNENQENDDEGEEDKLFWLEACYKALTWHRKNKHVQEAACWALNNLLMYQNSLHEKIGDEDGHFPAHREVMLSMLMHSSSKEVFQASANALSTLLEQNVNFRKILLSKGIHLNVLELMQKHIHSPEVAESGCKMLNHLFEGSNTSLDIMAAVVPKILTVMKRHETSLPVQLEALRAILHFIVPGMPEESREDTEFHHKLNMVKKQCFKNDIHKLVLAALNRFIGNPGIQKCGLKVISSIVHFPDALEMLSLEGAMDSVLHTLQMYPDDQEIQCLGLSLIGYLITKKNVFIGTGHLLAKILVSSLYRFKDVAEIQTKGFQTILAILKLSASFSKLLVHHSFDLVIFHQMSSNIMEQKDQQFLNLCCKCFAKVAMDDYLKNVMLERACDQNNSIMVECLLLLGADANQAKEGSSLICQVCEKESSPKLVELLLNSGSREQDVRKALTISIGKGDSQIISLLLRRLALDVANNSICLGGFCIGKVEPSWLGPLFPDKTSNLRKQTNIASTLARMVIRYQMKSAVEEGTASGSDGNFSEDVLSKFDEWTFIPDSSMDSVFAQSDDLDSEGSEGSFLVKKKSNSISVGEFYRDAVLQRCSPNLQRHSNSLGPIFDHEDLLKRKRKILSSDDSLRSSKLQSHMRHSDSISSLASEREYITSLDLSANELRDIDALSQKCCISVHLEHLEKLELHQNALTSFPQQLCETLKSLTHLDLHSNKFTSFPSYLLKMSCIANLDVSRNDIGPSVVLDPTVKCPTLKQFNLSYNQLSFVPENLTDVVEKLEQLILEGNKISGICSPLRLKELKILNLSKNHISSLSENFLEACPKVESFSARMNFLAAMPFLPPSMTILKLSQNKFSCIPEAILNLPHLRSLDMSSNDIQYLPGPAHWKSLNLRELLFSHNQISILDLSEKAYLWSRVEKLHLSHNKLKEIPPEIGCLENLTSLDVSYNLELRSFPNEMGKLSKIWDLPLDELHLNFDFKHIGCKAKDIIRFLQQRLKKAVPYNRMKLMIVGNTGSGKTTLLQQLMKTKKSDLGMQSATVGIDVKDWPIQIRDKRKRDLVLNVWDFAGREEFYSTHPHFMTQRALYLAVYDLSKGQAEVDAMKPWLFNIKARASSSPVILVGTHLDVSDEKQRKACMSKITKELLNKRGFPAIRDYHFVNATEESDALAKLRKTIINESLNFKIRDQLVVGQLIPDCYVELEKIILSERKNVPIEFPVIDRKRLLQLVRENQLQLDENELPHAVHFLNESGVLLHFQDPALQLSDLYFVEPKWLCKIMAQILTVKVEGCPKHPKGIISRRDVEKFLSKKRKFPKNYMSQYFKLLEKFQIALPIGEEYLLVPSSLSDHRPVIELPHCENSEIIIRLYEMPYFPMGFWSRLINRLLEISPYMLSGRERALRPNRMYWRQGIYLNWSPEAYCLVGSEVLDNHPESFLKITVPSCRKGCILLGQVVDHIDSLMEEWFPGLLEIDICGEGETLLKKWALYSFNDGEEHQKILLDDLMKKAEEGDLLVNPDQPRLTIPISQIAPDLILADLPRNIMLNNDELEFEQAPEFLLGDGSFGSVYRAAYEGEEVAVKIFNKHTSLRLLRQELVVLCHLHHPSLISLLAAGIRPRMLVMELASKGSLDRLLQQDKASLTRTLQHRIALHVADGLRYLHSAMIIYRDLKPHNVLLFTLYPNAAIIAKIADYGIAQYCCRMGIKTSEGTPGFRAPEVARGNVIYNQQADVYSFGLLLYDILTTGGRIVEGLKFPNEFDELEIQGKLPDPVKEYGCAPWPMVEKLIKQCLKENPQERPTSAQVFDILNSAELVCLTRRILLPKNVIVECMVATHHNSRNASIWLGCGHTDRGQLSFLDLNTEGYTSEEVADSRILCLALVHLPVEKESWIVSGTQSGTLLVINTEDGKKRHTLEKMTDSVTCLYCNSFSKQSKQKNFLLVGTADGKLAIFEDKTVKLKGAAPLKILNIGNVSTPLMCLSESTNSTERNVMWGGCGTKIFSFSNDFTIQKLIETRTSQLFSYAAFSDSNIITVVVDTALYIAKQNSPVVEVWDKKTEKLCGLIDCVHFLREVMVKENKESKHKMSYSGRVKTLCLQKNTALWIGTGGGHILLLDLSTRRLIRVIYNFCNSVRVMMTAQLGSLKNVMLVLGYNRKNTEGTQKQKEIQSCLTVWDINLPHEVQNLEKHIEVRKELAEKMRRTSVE
The experiment is described as follows: Recombinant cellular LRRK2 AlphaScreen assay. Format: cell-based. As to conditions: read-out: pIC50 in the recombinant cellular LRRK2 alphaScreen assay (converted). The source says:
Recombinant Cellular LRRK2 AlphaScreen Assay
To determine the activity of compounds against LRRK2 kinase activity in cells, the observed LRRK2 kinase-dependent modulation of LRRK2 Ser 935 phosphorylation (Dzamko et al., 2010, Biochem. J. 430: 405-413) was utilized to develop a quantitative 384 well plate-based immunoassay of LRRK2 Ser935 phosphorylation in the human neuroblastoma cell line SH-SY5Y, engineered to over-express recombinant full length LRRK2 protein.
A BacMam virus expressing full length recombinant LRRK2 was purchased from Invitrogen and amplified by inoculation of SF-9 cells at MOI 0.3 for 4-5 days in Sf-900 III SFM medium supplemented with 3% fetal bovine serum. Infected cell cultures were then centrifuged at 2000 g for 20 minutes, viral supernatant titer determined by anti-gp64 plaque assay and stored at 4° C.
Affinity-purified anti-phospho LRRK2 Ser935 sheep polyclonal antibody (Dzamko et al., 2010, Biochem. J. 430: 405-413) was biotinylated by standard methods (PerkinElmer). Anti-LRRK2 rabbit polyclonal antibody was purchased from Novus Biologicals. AlphaScreen Protein A IgG Kit (including acceptor and donor beads) was purchased from Perkin Elmer.
SH-SY5Y cells were grown in DMEM/F12 medium with 10% dialysed fetal bovine serum and harvested by treatment with 0.5% trypsin-EDTA for 5 minutes at 37° C. followed by centrifugation at 1000 rpm for 4 minutes. The cell pellet was resuspended in Opti-MEM reduced serum media (Invitrogen) at 200,000 cells/ml and mixed with the BacMam LRRK2 virus at M01=50. 50 μl cell solutions were then dispensed to each well of a 384-well plate and incubated at 37° C., 5% CO2 for 24 hours.
Serial dilutions of test compounds were prepared in Opti-MEM reduced serum media (Invitrogen) and 5.6 ul transferred from compound plate to cell assay plate to achieve a top final assay concentration of 10 uM. DMSO was used in certain wells as controls. Cells were incubated at 37° C., 5% CO2 for 60 minutes. The medium was then removed and cells lysed by addition of 20 ul cell lysis buffer (Cell Signaling Technology) and incubation at 4° C. for 20 minutes. 10 ul of antibody/acceptor bead mix [(1/1000 biotinylated-pS935 LRRK2 antibody, 1/1000 total-LRRK2 antibody, 1/100 Acceptor beads in AlphaScreen detection buffer (25 mM Hepes (pH 7.4), 0.5% Triton X-100, 1 mg/ml Dextran 500 and 0.1% BSA)] was then added to each well and plates incubated for 2 hours at ambient temperature in the dark. 10 μl of donor beads solution (1/33.3 donor beads in AlphaScreen detection buffer) was then added to each well. Following incubation for a further 2 hours at ambient temperature in the dark, plates were read on an EnVision™ plate reader at emission 520-620 nm with excitation 680 nm. Dose response curve data was based on sigmoidal dose-response model.
For orientation: Alpha assays give light when donor and acceptor beads are brought close together.
With `CCOc1nc(Nc2cnn(C3CCN(C4COC4)CC3(C)F)c2C)nc2[nH]ccc12` (single isomer, unassigned) [Example E138, (4-ethoxy-7H-pyrrolo[2,3-d]pyrimidin-2-yl)-[1-(3-fluoro-3-methyl-1-oxetan-3-yl-piperidin-4-yl)-5-methyl-1H-pyrazol-4-yl]-amine], the IC50 is not above 100 nM.

Consider `CCOc1nc(Nc2cnn(C3CNCCO3)c2Cl)nc2[nH]ccc12` (single isomer, unassigned) [Example E143, N-(5-chloro-1-(morpholin-2-yl)-1H-pyrazol-4-yl)-4-ethoxy-7H-pyrrolo[2,3-d]pyrimidin-2-amine], for which the IC50 was not above 100 nM.

On to `CCOc1nc(Nc2cnn(C3CC(N4CCOCC4)CCC3(F)F)c2Cl)nc2[nH]ccc12` (single isomer, unassigned) [Example E148, trans-N-(5-chloro-1-(2,2-difluoro-5-morpholinocyclohexyl)-1H-pyrazol-4-yl)-4-ethoxy-7H-pyrrolo[2,3-d]pyrimidin-2-amine], for which the IC50 was not above 100 nM.

`CCOc1nc(Nc2cn(C)nc2C)nc2[nH]ccc12` [Example E1, N-(1,3-dimethyl-1H-pyrazol-4-yl)-4-ethoxy-7H-pyrrolo[2,3-d]pyrimidin-2-amine]: the IC50 was not above 100 nM.

For `CCOc1nc(Nc2cnn(C)c2Cl)nc2[nH]ccc12` [Example E4, N-(5-chloro-1-methyl-1H-pyrazol-4-yl)-4-ethoxy-7H-pyrrolo-[2,3-d]-pyrimidin-2-amine], the IC50 was not above 100 nM.

Regarding `CCOc1nc(Nc2cn(CCOC)nc2C)nc2[nH]ccc12` [Example E8, 4-ethoxy-N-(1-(2-methoxyethyl)-3-methyl-1H-pyrazol-4-yl)-7H-pyrrolo-[2,3-d]-pyrimidin-2-amine], the IC50 was not above 100 nM.

Consider `CCOc1nc(Nc2cnn(CCOC)c2C)nc2[nH]ccc12` [Example E9, 4-ethoxy-N-(1-(2-methoxyethyl)-5-methyl-1H-pyrazol-4-yl)-7H-pyrrolo-[2,3-d]pyrimidin-2-amine], for which the IC50 is not above 100 nM.

As for `CCOc1nc(Nc2cnn(CCN3CC4CC4C3)c2C)nc2[nH]ccc12` (stereo not shown) [Example E10, N-(1-(2-(3-aza-bicyclo-[3.1.0]hexan-3-yl)ethyl)-5-methyl-1H-pyrazol-4-yl)-4-ethoxy-7H-pyrrolo-[2,3-d]pyrimidin-2-amine], the IC50 is not above 100 nM.

Consider `CCOc1nc(Nc2cnn(C3CCOCC3)c2C)nc2[nH]ccc12` [Example E11, 4-ethoxy-N-(5-methyl-1-(tetrahydro-2H-pyran-4-yl)-1H-pyrazol-4-yl)-7H-pyrrolo-[2,3-d]-pyrimidin-2-amine], for which the IC50 is not above 100 nM.

Regarding `CCOc1nc(Nc2cnn(CC(C)(C)O)c2Cl)nc2[nH]ccc12` [Example E15, 1-(5-chloro-4-((4-ethoxy-7H-pyrrolo-[2,3-d]pyrimidin-2-yl)amino)-1H-pyrazol-1-yl)-2-methylpropan-2-ol], the IC50 was not above 100 nM.

As to `CCOc1nc(Nc2cnn(C3CCN(C)CC3)c2C)nc2[nH]ccc12` [Example E18, 4-ethoxy-N-(5-methyl-1-(1-methylpiperidin-4-yl)-1H-pyrazol-4-yl)-7H-pyrrolo-[2,3-d]-pyrimidin-2-amine], the IC50 is not above 100 nM.

Regarding `CCOc1nc(Nc2cnn(C3CCOCC3)c2Cl)nc2[nH]ccc12` [Example E22, N-(5-chloro-1-(tetrahydro-2H-pyran-4-yl)-1H-pyrazol-4-yl)-4-ethoxy-7H-pyrrolo-[2,3-d]-pyrimidin-2-amine], the IC50 is not above 100 nM.

Turning to `CCOc1nc(Nc2cnn(CCF)c2C)nc2[nH]ccc12` [Example E26, 4-ethoxy-N-(1-(2-fluoroethyl)-5-methyl-1H-pyrazol-4-yl)-7H-pyrrolo-[2,3-d]-pyrimidin-2-amine], the IC50 was not above 100 nM.

In the case of `CCOc1nc(Nc2cn(CCF)nc2C)nc2[nH]ccc12` [Example E27, 4-ethoxy-N-(1-(2-fluoroethyl)-3-methyl-1H-pyrazol-4-yl)-7H-pyrrolo-[2,3-d]-pyrimidin-2-amine], the IC50 is not above 100 nM.

Consider `CCOc1nc(Nc2cnn(CC3COC3)c2Cl)nc2[nH]ccc12` [Example E28, N-(5-chloro-1-(oxetan-3-yl-methyl)-1H-pyrazol-4-yl)-4-ethoxy-7H-pyrrolo-[2,3-d]pyrimidin-2-amine], for which the IC50 was not above 100 nM.

On to `CCOc1nc(Nc2cnn(CC3COC3)c2C)nc2[nH]ccc12` [Example E29, 4-ethoxy-N-(5-methyl-1-(oxetan-3-yl-methyl)-1H-pyrazol-4-yl)-7H-pyrrolo-[2,3-d]pyrimidin-2-amine], for which the IC50 is not above 100 nM.

`CCOc1nc(Nc2cnn(C3COC3)c2C)nc2[nH]ccc12` [Example E34, 4-ethoxy-N-(5-methyl-1-(oxetan-3-yl)-1H-pyrazol-4-yl)-7H-pyrrolo[2,3-d]pyrimidin-2-amine]: the IC50 was not above 100 nM.

On to `CCOc1nc(Nc2cnn(C3COC3)c2Cl)nc2[nH]ccc12` [Example E35, N-(5-chloro-1-(oxetan-3-yl)-1H-pyrazol-4-yl)-4-ethoxy-7H-pyrrolo-[2,3-d]pyrimidin-2-amine], for which the IC50 is not above 100 nM.

As to `CCOc1nc(Nc2cnn(C3CCOCC3)c2C)nc2[nH]cc(C#N)c12` [Example E46, 4-ethoxy-2-((5-methyl-1-(tetrahydro-2H-pyran-4-yl)-1H-pyrazol-4-yl)-amino)-7H-pyrrolo-[2,3-d]-pyrimidine-5-carbonitrile], the IC50 was not above 100 nM.

In the case of `CCOc1nc(Nc2cnn(CCOC)c2C)nc2[nH]cc(C#N)c12` [Example E47, 4-ethoxy-2-((1-(2-methoxyethyl)-5-methyl-1H-pyrazol-4-yl)-amino)-7H-pyrrolo-[2,3-d]-pyrimidine-5-carbonitrile], the IC50 was not above 100 nM.

Regarding `CCOc1nc(Nc2cn(CCOC)nc2C)nc2[nH]cc(C#N)c12` [Example E48, 4-ethoxy-2-((1-(2-methoxyethyl)-3-methyl-1H-pyrazol-4-yl)-amino)-7H-pyrrolo-[2,3-d]-pyrimidine-5-carbonitrile], the IC50 is not above 100 nM.

`CCOc1nc(Nc2cnn([C@H]3CCN(C)C3)c2C)nc2[nH]cc(C#N)c12` [Example E49, (S)-4-ethoxy-2-((5-methyl-1-(1-methyl-pyrrolidin-3-yl)-1H-pyrazol-4-yl)-amino)-7H-pyrrolo-[2,3-d]pyrimidine-5-carbonitrile]: the IC50 was not above 100 nM.

Take `CCOc1nc(Nc2cnn(CCF)c2C)nc2[nH]cc(C#N)c12` [Example E50, 4-ethoxy-2-((1-(2-fluoroethyl)-5-methyl-1H-pyrazol-4-yl)-amino)-7H-pyrrolo-[2,3-d]-pyrimidine-5-carbonitrile]: the IC50 was not above 100 nM.

For the compound `CCOc1nc(Nc2cnn([C@@H]3CCN(C)C3)c2C)nc2[nH]cc(C#N)c12` [Example E51, (R)-4-ethoxy-2-((5-methyl-1-(1-methyl-pyrrolidin-3-yl)-1H-pyrazol-4-yl)-amino)-7H-pyrrolo-[2,3-d]pyrimidine-5-carbonitrile], the IC50 was not above 100 nM.

For the compound `CCOc1nc(Nc2cnn(C3CCN(C4COC4)CC3)c2C)nc2[nH]ccc12` [Example E53, 4-ethoxy-N-(5-methyl-1-(1-(oxetan-3-yl)-piperidin-4-yl)-1H-pyrazol-4-yl)-7H-pyrrolo-[2,3-d]-pyrimidin-2-amine], the IC50 is not above 100 nM.

`CCOc1nc(Nc2cnn([C@H]3CC[C@@H](O)CC3)c2C)nc2[nH]ccc12` [Example E54, cis-4-(4-((4-ethoxy-7H-pyrrolo[2,3-d]pyrimidin-2-yl)amino)-5-methyl-1H-pyrazol-1-yl)-cyclohexanol]: the IC50 is not above 100 nM.

For the compound `CCOc1nc(Nc2cnn(CC(C)(C)C#N)c2C)nc2[nH]ccc12` [Example E62, 3-(4-((4-ethoxy-7H-pyrrolo-[2,3-d]pyrimidin-2-yl)amino)-5-methyl-1H-pyrazol-1-yl)-2,2-dimethylpropanenitrile], the IC50 is not above 100 nM.

Consider `CCOc1nc(Nc2cnn(CCN3CC[C@@H](F)C3)c2C)nc2[nH]ccc12` [Example E63, (R)-4-ethoxy-N-(1-(2-(3-fluoropyrrolidin-1-yl)-ethyl)-5-methyl-1H-pyrazol-4-yl)-7H-pyrrolo[2,3-d]pyrimidin-2-amine], for which the IC50 is not above 100 nM.
